Our source for the IC50 values is BindingDB's records for patent US20240308995 (Biogen Ma, 2024).

A value given as a limit tells only on which side of the number the result lay.

For the assay, the target named is T1, Protein O-GlcNAcase (Homo sapiens, UniProt O60502).
T1 sequence (O60502 whole entry): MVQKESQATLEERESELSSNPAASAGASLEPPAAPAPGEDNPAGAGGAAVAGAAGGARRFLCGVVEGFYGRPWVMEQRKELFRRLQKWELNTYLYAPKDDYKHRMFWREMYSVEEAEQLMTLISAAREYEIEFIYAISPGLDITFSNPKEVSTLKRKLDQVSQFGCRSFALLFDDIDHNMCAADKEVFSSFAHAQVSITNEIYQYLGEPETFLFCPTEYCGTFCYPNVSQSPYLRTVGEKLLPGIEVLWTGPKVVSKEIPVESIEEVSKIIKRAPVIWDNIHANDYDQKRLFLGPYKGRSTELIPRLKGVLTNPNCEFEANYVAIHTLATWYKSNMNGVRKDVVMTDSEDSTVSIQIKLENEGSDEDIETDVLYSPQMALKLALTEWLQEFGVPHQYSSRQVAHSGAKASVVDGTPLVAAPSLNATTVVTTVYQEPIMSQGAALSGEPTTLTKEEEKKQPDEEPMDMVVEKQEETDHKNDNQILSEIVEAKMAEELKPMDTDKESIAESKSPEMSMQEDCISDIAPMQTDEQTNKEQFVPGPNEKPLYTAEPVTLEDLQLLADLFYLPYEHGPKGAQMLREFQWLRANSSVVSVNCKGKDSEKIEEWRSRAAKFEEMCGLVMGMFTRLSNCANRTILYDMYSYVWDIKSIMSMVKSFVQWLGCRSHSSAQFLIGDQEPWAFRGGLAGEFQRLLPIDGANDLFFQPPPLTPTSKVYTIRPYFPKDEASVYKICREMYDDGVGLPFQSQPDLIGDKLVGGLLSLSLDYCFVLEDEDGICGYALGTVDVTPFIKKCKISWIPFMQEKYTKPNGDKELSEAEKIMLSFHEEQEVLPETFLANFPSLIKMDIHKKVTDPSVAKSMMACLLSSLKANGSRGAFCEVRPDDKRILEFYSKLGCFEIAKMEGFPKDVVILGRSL
The assay is described as follows: Enzyme Inhibition Biochemical Assay. As to the method: Recombinant full length human OGA enzyme was purchased from Origene. 4-MUGlcNAc substrate was purchased from Sigma. All other reagents were purchased from Sigma or Fisher. Assay buffer consists of the McIlvaine buffer system, pH 6.4 (0.2M Na2HPO4 mixed with 0.1M citric acid) and 0.01% BSA. […] Reactions were incubated for 90 minutes at room temperature and quenched with 40 μl of 3M glycine, pH 10 and read on a Perkin Elmer Envision plate reader (Ex: 355 nm/Em: 460 nm). Compounds were tested with a 10-point dose-response starting from 20 μM with a 4-fold dilution. Data was fit using GraphPad Prism using a 4-parameter fit with variable slope.

One may read the IC50 as the concentration that gives 50% inhibition. Low readings indicate greater potency, high ones weaker potency. For the compound `CC(=O)Nc1ncc(CN2C[C@H](Oc3cc(=O)n(C)cn3)C[C@@H]2C)s1` [US20240308995, Example 1-70], the IC50 was under 1 nM.
